Test system: High fat diet + STZ + DOCA (diabetic nephropathy)
Assay: Renal lipids (triglyceride, total cholesterol, free fatty acid, phospholipids) by automated analyzer in high fat diet + STZ + DOCA model
Format: in vivo, rats
Description: After 1 week of adaptive feeding, the rats were randomly divided into normal control and experimental groups. The experimental group received high-fat diet (consisting of 70% standard laboratory chow, 15% carbohydrates, 10% lard, and 5% yolk powder) to establish an insulin resistance model, while the normal control group receive standard chow. After 4 weeks of high-fat diet feeding, the experimental group rats were induced with diabetes by a single intraperitoneal injection of STZ (35 mg/kg, dissolved in 0.01 M sodium citrate buffer, pH 4.4), while the Normal group rats were injected with the same dose of citrate buffer. At the 7th day after STZ injection, the blood glucose levels of rats were measured to confirm the successful establishment of the model. Rats with blood glucose level ≥250 mg/dl is indicative of the establishment of the disease and selected for further pharmacological studies. All rats were fed their respective diets until the end of the study. Rats were also given 1% NaCl (salt) to drink and on day 28, 0.75 μg […] (DOCA) was subcutaneously infused. Blood pressure and urinary albumin were measured to establish renal hypertension.
All the experimental rats were assigned to the specific treatment group and test drugs were administered orally once daily between 9:00 and 11:00 a.m., continuously for 12 weeks.
At the end of the treatment, all rats were be housed in individual metabolic cages for 24 h to collect urine samples and then sacrifice. Urine samples were centrifuged at 4000×g for 5 min to separate the supernatant. Blood samples are acquired by a small puncture to retro orbital plexus and centrifuged at 4000×g for 10 min at 4° C. to separate the plasma for subsequent experiments. Serum was also separated from the blood for analysis in which anti-coagulant was not added. Thereafter, the kidneys were immediately harvested and weighed. The right kidneys were washed in ice-cold saline solution and fixed in 4% neutral formaldehyde solution for histological examination, whereas the renal cortex of the left kidneys was rinsed with cold isotonic saline and subsequently stored at −70° C. until biochemical estimations.
Measurement of renal lipids viz. Triglyceride, Total cholesterol, Free Fatty Acid, Phospholipids was also done by automated analyzer.

[1] = decrease against High fat diet + STZ + DOCA group
[2] = renal lipids, high fat diet + STZ + DOCA rats, p.o. 12 weeks

CN(C)C(=N)N=C(N)N [Metformin]
Free fatty acids, % decrease (↓) [1]: 47.5%↓
Phospholipids, % decrease (↓) [1]: 55.2%↓
Total Cholesterol, % decrease (↓) [1]: 30%↓
Triglycerides, % decrease (↓) [1]: 17.2%↓
Free fatty acids [2]: 25.34 ± 1.88 mg/mL
Phospholipids [2]: 4.33 ± 0.023 mg/mL
Total Cholesterol [2]: 40.33 ± 3.50 mg/dL
Triglycerides [2]: 122.67 ± 3.56 mg/mL
